Measurements: US20110039721A1, “METHOD FOR PREDICTION ABOUT CARCINOGENICITY OF SUBSTANCE IN RODENT” (Chemicals Evaluation and Research Institute, priority 2007, published 2011)

Assays:
[1] = system: rodent; conditions: classification of the substance (C+/C−); cited from earlier work
[2] = system: liver; conditions: classification of the substance (Cr+/Cr−); cited from earlier work
[3] = classification of the substance (M+/M−); cited from earlier work
[4] = system: mRNA expressed from the genes (A) to (D) in rat liver; assay: Behavior of genes (mRNA expression level, oligo-DNA microarray) in rat liver after 28-day oral administration; type: in vivo; conditions: mRNA vs vehicle control group
Outline: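 Male F344 SPF rats, 5 weeks old, four per group, dosed by oral gavage once daily for 28 days with test chemical or matched-volume solvent. Liver total RNA profiled on oligo-DNA microarray. Change ≥1.5-fold or ≤1/1.5 versus vehicle counted as significant if its direction matched that seen with other carcinogens.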

[5] = gene group (A), Unigene No. Rn.167075
[6] = gene group (C), Unigene No. Rn.120914

**Q.** Which Carcinogenicity [1] does the source give for `COc1ccc(O)c(C(C)(C)C)c1` [TS023, Butylated hydroxyanisole] here?
**A.** C+

**Q.** And the Liver carcinogenicity [2]?
**A.** Cr−

**Q.** And the “Mutagenicity by Ames test” value [3]?
**A.** M−

**Q.** And the “Behavior of gene caused by administration of chemical substance, Gene No. 4846” value ([4]; gene group (A), Unigene No. Rn.144554)?
**A.** −

**Q.** And the “Behavior of gene caused by administration of chemical substance, Gene No. 2026” value [4, 5]?
**A.** −

**Q.** And the “Behavior of gene caused by administration of chemical substance, Gene No. 4218” value [4, 5]?
**A.** −

**Q.** And the “Behavior of gene caused by administration of chemical substance, Gene No. 6182” value ([4]; gene group (A), Unigene No. Rn.5834)?
**A.** −

**Q.** What about the “Behavior of gene caused by administration of chemical substance, Gene No. 5600” value ([4]; gene group (A), Unigene No. Rn.9836) of the same compound?
**A.** −

**Q.** What about the “Behavior of gene caused by administration of chemical substance, Gene No. 1494” value ([4]; gene group (B), Unigene No. Rn.1430) of the same compound?
**A.** −

**Q.** And the “Behavior of gene caused by administration of chemical substance, Gene No. 2045” value ([4]; gene group (B), Unigene No. Rn.19329)?
**A.** −

**Q.** And the “Behavior of gene caused by administration of chemical substance, Gene No. 2203” value ([4]; gene group (B), Unigene No. Rn.21240)?
**A.** +

**Q.** And the “Behavior of gene caused by administration of chemical substance, Gene No. 533” value ([4]; gene group (C), Unigene No. Rn.106184)?
**A.** −

**Q.** And the “Behavior of gene caused by administration of chemical substance, Gene No. 725” value ([4]; gene group (C), Unigene No. Rn.108075)?
**A.** +

**Q.** And the “Behavior of gene caused by administration of chemical substance, Gene No. 1163” value ([4]; gene group (C), Unigene No. Rn.11766)?
**A.** +

**Q.** What about the “Behavior of gene caused by administration of chemical substance, Gene No. 4973” value ([4]; gene group (C), Unigene No. Rn.118529) of the same compound?
**A.** +

**Q.** And the “Behavior of gene caused by administration of chemical substance, Gene No. 4095” value ([4]; gene group (C), Unigene No. Rn.119024)?
**A.** +

**Q.** And the “Behavior of gene caused by administration of chemical substance, Gene No. 1334” value [4, 6]?
**A.** −

**Q.** And the “Behavior of gene caused by administration of chemical substance, Gene No. 6620” value [4, 6]?
**A.** −

**Q.** What about the “Behavior of gene caused by administration of chemical substance, Gene No. 6303” value ([4]; gene group (C), Unigene No. Rn.123063) of the same compound?
**A.** −

**Q.** What about the “Behavior of gene caused by administration of chemical substance, Gene No. 5878” value ([4]; gene group (C), Unigene No. Rn.143213) of the same compound?
**A.** −

**Q.** What about the “Behavior of gene caused by administration of chemical substance, Gene No. 1131” value ([4]; gene group (C), Unigene No. Rn.144946) of the same compound?
**A.** −

**Q.** What about the “Behavior of gene caused by administration of chemical substance, Gene No. 1562” value ([4]; gene group (C), Unigene No. Rn.14744) of the same compound?
**A.** −

**Q.** And the “Behavior of gene caused by administration of chemical substance, Gene No. 1741” value ([4]; gene group (C), Unigene No. Rn.1647)?
**A.** −

**Q.** And the “Behavior of gene caused by administration of chemical substance, Gene No. 893” value ([4]; gene group (C), Unigene No. Rn.164817)?
**A.** −

**Q.** What about the “Behavior of gene caused by administration of chemical substance, Gene No. 6026” value ([4]; gene group (C), Unigene No. Rn.167685) of the same compound?
**A.** −

**Q.** What about the “Behavior of gene caused by administration of chemical substance, Gene No. 154” value ([4]; gene group (C), Unigene No. Rn.185941) of the same compound?
**A.** +

**Q.** And the “Behavior of gene caused by administration of chemical substance, Gene No. 1993” value ([4]; gene group (C), Unigene No. Rn.18728)?
**A.** −

**Q.** What about the “Behavior of gene caused by administration of chemical substance, Gene No. 813” value ([4]; gene group (C), Unigene No. Rn.201760) of the same compound?
**A.** −

**Q.** And the “Behavior of gene caused by administration of chemical substance, Gene No. 2494” value ([4]; gene group (C), Unigene No. Rn.23969)?
**A.** −

**Q.** What about the “Behavior of gene caused by administration of chemical substance, Gene No. 2546” value ([4]; gene group (C), Unigene No. Rn.24561) of the same compound?
**A.** −

**Q.** What about the “Behavior of gene caused by administration of chemical substance, Gene No. 3776” value ([4]; gene group (C), Unigene No. Rn.43232) of the same compound?
**A.** −

**Q.** What about the “Behavior of gene caused by administration of chemical substance, Gene No. 3929” value ([4]; gene group (C), Unigene No. Rn.4620) of the same compound?
**A.** −

**Q.** What about the “Behavior of gene caused by administration of chemical substance, Gene No. 1119” value ([4]; gene group (C), Unigene No. Rn.9757) of the same compound?
**A.** −

**Q.** What about the “Behavior of gene caused by administration of chemical substance, Gene No. 6742” value ([4]; gene group (C), Unigene No. Rn.9779) of the same compound?
**A.** −

**Q.** And the “Behavior of gene caused by administration of chemical substance, Gene No. 5634” value ([4]; gene group (C), Unigene No. Rn.9862)?
**A.** −

**Q.** What about the “Behavior of gene caused by administration of chemical substance, Gene No. 5726” value ([4]; gene group (D), Unigene No. Rn.9939) of the same compound?
**A.** −
